# Earlier results as cited in patent publication US20040176366A1, “Method of preventing or treating atherosclerosis or restenosis” (priority 2002, published 2004).
# Tested on: CMV
# Details: rats, prophylaxis
smiles,measurement,value
Nc1nc(O)c2ncn(COC(CO)CO)c2n1 [Ganciclovir],prevention of atherosclerosis resulting from CMV infection,prevent atherosclerosis resulting from CMV infection of rats
